The values below come from US10919896B2, “Preparation and uses of pyrimidinone derivatives” (Cancer Research Technology Limited, priority 2016, dated 2021).

Cdc7/Dbf4, sequence (O00311 whole entry): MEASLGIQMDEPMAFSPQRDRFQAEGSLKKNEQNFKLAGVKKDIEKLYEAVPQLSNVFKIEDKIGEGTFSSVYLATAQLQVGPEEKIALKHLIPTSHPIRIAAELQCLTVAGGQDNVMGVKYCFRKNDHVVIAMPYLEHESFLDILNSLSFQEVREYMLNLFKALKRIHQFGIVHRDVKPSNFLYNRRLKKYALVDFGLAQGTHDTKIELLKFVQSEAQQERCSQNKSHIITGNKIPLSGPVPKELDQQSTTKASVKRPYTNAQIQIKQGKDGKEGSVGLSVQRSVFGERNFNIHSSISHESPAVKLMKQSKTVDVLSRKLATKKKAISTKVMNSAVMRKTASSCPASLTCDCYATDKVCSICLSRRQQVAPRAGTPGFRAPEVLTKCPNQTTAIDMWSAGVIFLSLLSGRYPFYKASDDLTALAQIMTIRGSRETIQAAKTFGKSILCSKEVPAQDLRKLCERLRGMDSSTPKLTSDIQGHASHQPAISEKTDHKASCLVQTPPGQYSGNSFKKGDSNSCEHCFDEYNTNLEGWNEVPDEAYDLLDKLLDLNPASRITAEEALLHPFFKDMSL
Cdc7/Dbf4, sequence (Q9UBU7 whole entry partner): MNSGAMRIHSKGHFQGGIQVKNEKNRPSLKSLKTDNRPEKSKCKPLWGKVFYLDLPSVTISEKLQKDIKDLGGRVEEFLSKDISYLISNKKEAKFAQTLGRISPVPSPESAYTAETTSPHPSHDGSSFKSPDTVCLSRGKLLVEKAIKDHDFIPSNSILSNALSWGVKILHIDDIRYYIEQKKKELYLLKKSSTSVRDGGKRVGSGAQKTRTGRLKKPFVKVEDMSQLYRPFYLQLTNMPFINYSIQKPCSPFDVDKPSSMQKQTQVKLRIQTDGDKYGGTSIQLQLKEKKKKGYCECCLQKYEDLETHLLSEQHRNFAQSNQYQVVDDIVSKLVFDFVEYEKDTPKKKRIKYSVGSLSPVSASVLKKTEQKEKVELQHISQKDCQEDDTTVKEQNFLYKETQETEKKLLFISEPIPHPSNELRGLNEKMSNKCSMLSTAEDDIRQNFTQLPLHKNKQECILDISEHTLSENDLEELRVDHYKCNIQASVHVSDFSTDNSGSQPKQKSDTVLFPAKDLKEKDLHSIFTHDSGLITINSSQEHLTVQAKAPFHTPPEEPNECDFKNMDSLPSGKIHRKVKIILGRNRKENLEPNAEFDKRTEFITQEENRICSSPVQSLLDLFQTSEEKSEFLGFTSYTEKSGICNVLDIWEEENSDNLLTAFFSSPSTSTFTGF

The first assay addresses Cdc7/Dbf4 (Homo sapiens, UniProt O00311). Kind of assay: Cdc7 Biochemical Assay Method 3: Cdc7/Dbf4 Enzyme TR-FRET Assay measuring pS40MCM2. To be noted: 1 μM ATP, read-out: Biochemical Method 3 (pIC50) (converted). As for the experimental part:
This protocol describes a method for assaying a compounds' ability to inhibit Cdc7 activity by measuring pS40MCM2 levels in a Cdc7/Dbf4 Enzyme TR-FRET Assay.
2.5 nM Cdc7/Dbf4 was incubated with 100 nM of biotin-labelled peptide 35-TDALTS(pS)PGRDLP in the presence of 1 μM ATP at 25° C. for 120 minutes. The phosphorylation of the peptide was detected using TR-FRET. Anti-Mcm2 (pS40) antibody, Terbium anti-rabbit secondary antibody and Streptavidin-Alexa Fluor488 form the detection system.
For orientation: Time-resolved FRET reads energy transfer from a long-lived donor to a nearby acceptor.
With `CC1c2nnc(C(F)(F)F)n2C(C)CN1c1nc(-c2ccnc(F)c2)[nH]c(=O)c1Cl` (stereo not drawn) [Compound 356], the IC50 is 10 nM.
On the same count and under the same terms, the figure for `O=c1[nH]c(-c2ccnc(F)c2)nc(N2CC3(CNC3)C2)c1Cl` [Compound 198] is 66.1 nM; for `CC(C)c1nnc2n1CCN(c1nc(-c3ccnc(F)c3)[nH]c(=O)c1Cl)C2` [Compound 270] it is 20.9 nM; for `O=C1CCN(c2nc(-c3ccnc(F)c3)[nH]c(=O)c2Cl)CCN1` [Compound 288] it is 0.933 nM.
On the same count and under the same terms, the figure for `Nc1ccc(Oc2nc(-c3ccnc(F)c3)[nH]c(=O)c2Cl)cc1` [Compound 287] is 19.1 nM; for `CNC(=O)C1CCN(c2nc(-c3ccnc(F)c3)[nH]c(=O)c2Cl)CC1` [Compound 231] it is 2.88 nM; for `O=c1[nH]c(-c2ccnc(F)c2)nc(N2CCOC(COc3ccccc3)C2)c1Cl` (stereo not drawn) [Compound 285] it is 9.12 nM.
The same measure, in the same setting: the figure for `O=c1[nH]c(-c2ccnc(F)c2)nc(N2CCOC3(CCNCC3)C2)c1Cl` [Compound 227] is 2.24 nM.
As for `NC(=O)[C@@H]1CCN(c2nc(-c3ccnc(F)c3)[nH]c(=O)c2Cl)C1` [Compound 249], the IC50 was 9.33 nM.
Same read-out and setting: then `O=c1[nH]c(-c2ccnc(F)c2)nc(N2CCCC2)c1Cl` [Compound 276], with 6.31 nM; and `CN(c1nc(-c2ccnc(F)c2)[nH]c(=O)c1Cl)C1CCNCC1(C)C` (stereo not drawn) [Compound 210], with 4.37 nM.
The same measure, in the same setting: the figure for `O=C(NCCO)C1CCN(c2nc(-c3ccnc(F)c3)[nH]c(=O)c2Cl)CC1` [Compound 256] is 2 nM.
Same read-out and setting: then `CN(Cc1ccccc1)c1nc(-c2ccnc(F)c2)[nH]c(=O)c1Cl` [Compound 289], with 95.5 nM.
For `CCNC(=O)C1CCN(c2nc(-c3ccnc(F)c3)[nH]c(=O)c2Cl)CC1` [Compound 257], the IC50 was 6.03 nM.
For the compound `O=c1[nH]c(-c2ccnc(F)c2)nc(OC2CCOCC2)c1Cl` [Compound 305], the IC50 was 2 nM.
On the same count and under the same terms, then `CC(C)C(=O)NC1CCN(c2nc(-c3ccnc(F)c3)[nH]c(=O)c2Cl)CC1` [Compound 254], with 2.4 nM; and `N[C@@H]1CCN(c2nc(-c3ccnc(F)c3)[nH]c(=O)c2Cl)C1` [Compound 324], with 14.5 nM.
The same measure, in the same setting: the figure for `O=c1[nH]c(-c2ccnc(F)c2)nc(N2CCCC3(CCCN3)C2)c1Cl` (stereo not drawn) [Compound 250] is 9.77 nM; for `O=c1[nH]c(-c2ccnc(F)c2)nc(N2CCn3c(nnc3C(F)(F)F)C2)c1Cl` [Compound 291] it is 4.17 nM.
As to `NC[C@H]1CCN(c2nc(-c3ccnc(F)c3)[nH]c(=O)c2Cl)C1` [Compound 219], the IC50 is 6.76 nM.
Same read-out and setting: the figure for `CN(c1nc(-c2ccnc(F)c2)[nH]c(=O)c1Cl)[C@@H]1CCCNC1` [Compound 268] is 4.27 nM; for `O=c1[nH]c(-c2ccnc(F)c2)nc(N2CCO[C@H]3CCCC[C@@H]32)c1Cl` [Compound 332] it is 6.31 nM.
Same read-out and setting: then `O=c1[nH]c(-c2ccnc(F)c2)nc(CN2CCOCC2)c1Cl` [Compound 397, 5-chloro-2-(2-fluoro-4-pyridyl)-4-(morpholinomethyl)-1H-pyrimidin-6-one], with 219 nM.
As for `CC1CN(C)CCCN1c1nc(-c2ccnc(F)c2)[nH]c(=O)c1Cl` (stereo not drawn) [Compound 302], the IC50 was 25.1 nM.
Still for that read-out and setting: then `O=c1[nH]c(-c2ccnc(F)c2)nc(OCc2ccccc2)c1Cl` [Compound 294], with 182 nM.
Same read-out and setting: then `O=c1[nH]c(-c2ccnc(F)c2)nc(N2CCOC3CNCC32)c1Cl` (stereo not drawn) [Compound 216], with 1.7 nM.
The same measure, in the same setting: the figure for `O=c1[nH]c(-c2ccnc(F)c2)nc(N2CC[C@H](O)C2)c1Cl` [Compound 215] is 14.1 nM.
With `O=c1[nH]c(-c2ccnc(F)c2)nc(O[C@H]2CCCNC2)c1Cl` [Compound 331], the IC50 was 9.55 nM.
As to `O=C1NC(=O)C2(CCN(c3nc(-c4ccnc(F)c4)[nH]c(=O)c3Cl)CC2)N1` [Compound 233], the IC50 is 2.19 nM.
On to `O=c1[nH]c(-c2ccnc(F)c2)nc(N2CCOC(CN3CCCCC3)C2)c1Cl` (stereo not drawn) [Compound 202], for which the IC50 is 10 nM.

The target in another assay is Cdc7/ASK (Homo sapiens, UniProt O00311). Description: Cdc7 Biochemical Assay Method 1: 384 well ELISA, whole protein substrate MCM2, antibody against Phospho MCM2 (S53). Details: purchased. The following applies: 2 μM ATP, read-out: Biochemical Method 1 (pIC50) (converted). As for the experimental part: This protocol describes a method for assaying Cdc7/ASK for activity. The assay is a 384 well ELISA assay, utilising a whole protein substrate (MCM2) and an antibody against Phospho MCM2 (S53). This site is thought to be specific to Cdc7/ASK phosphorylation and the assay has been validated using knockout mutants. Reagents • TBS: 25 mM Tris pH 7.2, 150 mM NaCl. (Dilute 10× stock by 1:10). • Wash Buffer: TBS+0.05% Tween 20. (Add 100 mL 1 M Tris pH 7.2, 120 mL 5 M NaCl and 2 mL 100% Tween 20 per 4 L). • Kinase Reaction Buffer: 50 mM Tris-HCl pH 8.5, 10 mM MgCl2, 1 mM DTT. (Dilute 10× stock by 1:10 and add 100 μL 1M DTT per 100 mL prior to assay). • Diethanolamine Buffer: 1 M diethanolamine pH 9.8, 0.5 mM MgCl2. • Stop Solution: 1 M NaOH. • MCM2 was expressed and purified in-house and used in the assay at a final assay concentration of 436 ng/well. • Cdc7/ASK is purchased from commercial suppliers and used in the assay at a final assay concentration of 37.97 ng/well or 20.63 nM. • ATP used as a final assay concentration of 2 μM. • Primary Antibody: Rabbit anti-Phospho MCM2 (S53 Antibody (BL3353)), is purchased from commercial suppliers at 0.2 mg/mL and used at a final assay concentration by diluting 1:800 in TBS. • Secondary Antibody: Anti-Rabbit/AP Antibody is supplied is purchased from commercial suppliers at 1 mg/mL and used at a final assay concentration by diluting 1:2000 in TBS. • Development Reagent: Dissolve one 20 mg PNPP tablet (Sigma, product […], 20 mg per tablet) per 20 mL diethanolamine Buffer (or one 5 mg PNPP tablet per 5 mL diethanolamine buffer). Cover in foil and leave shaking on a roller shaker at room temperature for up to an hour to dissolve. Methods • 1. Add 20 μL 1× working stock of Substrate (MCM2) in TBS to all wells of a clear, 384 well, Nickel-chelate microplate to give a final concentration of […]. Incubate at room temperature for at least 1 hour. Plates can be pre-coated for 1 hour and stored at 4° C. for up to 8 days. • 2. Wash with TBS+0.05% Tween 20 (80 μL×3). • 3. Add 2 μL 10× test compounds, including the positive control, in 40% DMSO/water to 'test' wells. Add 2 μL 40% DMSO/water to 'control' and 'blank' wells. The final DMSO concentration will be 4%. • 4. Add 13 μL CDC7/ASK Kinase (1.5× stock) in Kinase Reaction Buffer to 'test' and 'control' wells to give a final concentration of […]. Add 13 μL Kinase Reaction Buffer to 'blank' wells. • 5. Add 5 μL ATP (4× stock) in Kinase Reaction Buffer to all wells to give a final concentration of 2 μM. • 6. Incubate at room temperature for 90 minutes. • 7. Wash with TBS+0.05% Tween 20 (80 μL×3). • 8. Add 20 μL 1× working solution of Primary Antibody in TBS to all wells. Incubate at room temperature for 30 minutes. • 9. Wash with TBS+0.05% Tween 20 (80 μL×3). • 10. Add 20 μL 1× working solution of Secondary Antibody in TBS to all wells. Incubate at room temperature for 30 minutes. • 11. Wash with TBS+0.05% Tween 20 (80 μL×3). • 12. Add 20 μL 1× Development Reagent to all wells. • 13. Incubate at room temperature for 2 hours. Stop the reaction by adding 20 μL Stop Solution to all wells and record Absorbance on a Pherastar plate reader. Percentage inhibition values were calculated from absorbance values, using the no compound (DMSO) and no enzyme control values as 0% and 100% inhibition, respectively. IC50 determination was performed with ExcelFit software (IDBS) using curve fit 205. Z' factors were determined for each plate tested and were all above 0.5. Method 2
Cdc7/ASK, sequence (O00311 whole entry): as the sequence (O00311 whole entry) above
Cdc7/ASK, sequence (Q9UBU7 whole entry partner): as the sequence (Q9UBU7 whole entry partner) above
(In general: ELISA stands for enzyme-linked immunosorbent assay.)
Consider `O=c1[nH]c(-c2ccncc2)nc(C2CCOCC2)c1I` [Compound 4, 5-Iodo-2-(4-pyridyl)-4-tetrahydropyran-4-yl-1H-pyrimidin-6-one], for which the IC50 was 331 nM.
Consider `COC(=O)[C@@H]1CN(c2nc(-c3ccncc3)[nH]c(=O)c2Cl)CCN1C(=O)OC(C)(C)C` [Compound 162], for which the IC50 was 155 nM.
Still for that read-out and setting: the figure for `O=CN1CCCN(c2nc(-c3ccncc3)[nH]c(=O)c2Cl)CC1` [Compound 119] is 3.55 nM; for `O=c1[nH]c(-c2ccncc2)nc(N2CCN[C@@H](CCO)C2)c1Cl` [Compound 175] it is 57.5 nM.
Same read-out and setting: the figure for `O=c1[nH]c(-c2ccncc2)nc(N2CCCCC2)c1Cl` [Compound 26, 5-chloro-4-(1-piperidyl)-2-(4-pyridyl)-1H-pyrimidin-6-one] is 6.76 nM; for `O=c1[nH]c(-c2ccncc2)nc(N2CCN3CC(F)(F)C[C@H]3C2)c1Cl` [Compound 149] it is 13.2 nM; for `CC(=O)N1CCN(c2nc(-c3ccncc3)[nH]c(=O)c2Cl)CC1` [Compound 42] it is 5.13 nM.
Consider `CC(C)(C)OC(=O)N1CCC(c2nc(-c3ccnc(F)c3)[nH]c(=O)c2Cl)CC1` [Compound 25], for which the IC50 is 23.4 nM.
The same measure, in the same setting: then `CN(C)C(=O)CN1CCN(c2nc(-c3ccncc3)[nH]c(=O)c2Cl)CC1` [Compound 110], with 661 nM; and `O=c1[nH]c(-c2ccncc2)nc(C2CCOCC2)c1C(F)(F)F` [Compound 406, 2-(4-pyridyl)-4-tetrahydropyran-4-yl-5-(trifluoromethyl)-1H-pyrimidin-6-one], with 851 nM; and `CC1CN(c2nc(-c3ccncc3)[nH]c(=O)c2Cl)CC(C)N1` (stereo not drawn) [Compound 108], with 174 nM.
On the same count and under the same terms, the figure for `Cc1cc(C(=O)N2CCC(c3nc(-c4ccncc4)[nH]c(=O)c3Cl)CC2)n(C)n1` [Compound 56] is 1.62 nM; for `CC1CN(c2nc(-c3ccncc3)[nH]c(=O)c2Cl)CC(C)O1` (stereo not drawn) [Compound 92] it is 83.2 nM.
Still for that read-out and setting: the figure for `CC(N)C(=O)N1CCC(c2nc(-c3ccncc3)[nH]c(=O)c2Cl)CC1` (stereo not drawn) [Compound 75] is 9.12 nM; for `O=c1[nH]c(-c2ccncc2)nc(N2CCN[C@H](Cc3ccccc3)C2)c1Cl` [Compound 165] it is 126 nM.
For `O=c1[nH]c(-c2ccnc(Cl)c2)nc(C2CCOCC2)c1Cl` [Compound 23], the IC50 was 19.1 nM.
On the same count and under the same terms, then `CC(C)(C)N1CCCN(c2nc(-c3ccncc3)[nH]c(=O)c2Cl)CC1` [Compound 137], with 589 nM; and `CC(C)(O)[C@@H]1CN(c2nc(-c3ccncc3)[nH]c(=O)c2Cl)CCN1` [Compound 407, 5-chloro-4-[(3S)-3-(1-hydroxy-1-methyl-ethyl)piperazin-1-yl]-2-(4-pyridyl)-1H-pyrimidin-6-one], with 60.3 nM.
